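A five-concentration, 48-hour dose response in 96-well plates underlies each endpoint, interpolated linearly between surrounding concentrations. GI50 is the concentration that inhibits growth by half. Definition used: TGI = concentration required for complete inhibition of growth.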
Columns and labels:
Test in all cases: NCI tumour cell line growth inhibition, 48 h
[1] = test system: RXF 393 renal
[2] = test system: MDA-MB-231 breast
[3] = test system: T-47D breast
[4] = test system: HL-60(TB) leukemia
[5] = test system: KM12 colon
[6] = test system: ACHN renal
[7] = test system: HCT-15 colon
[8] = test system: NCI-H522 lung
[9] = test system: SF-539 CNS
[10] = test system: MDA-MB-435
[11] = test system: NCI-H460 lung
[12] = test system: A549 NSCLC
[13] = test system: SK-MEL-5 melanoma
[14] = test system: M14 melanoma
[15] = test system: SK-OV-3 ovarian
[16] = test system: SR leukemia
[17] = test system: SF-295 CNS
[18] = test system: K-562 leukemia
[19] = test system: OVCAR-4 ovarian
[20] = test system: 786-0 renal
[21] = test system: CCRF-CEM leukemia
[22] = test system: NCI-H226 lung
[23] = test system: OVCAR-8 ovarian
[24] = test system: LOX IMVI melanoma
[25] = test system: HOP-62 NSCLC
[26] = test system: MCF7 breast
[27] = test system: IGROV1 ovarian
[28] = test system: SN12C renal
[29] = test system: EKVX NSCLC
[30] = test system: MOLT-4 leukemia
[31] = test system: HCC-2998 colon
[32] = test system: DU-145 prostate
[33] = test system: OVCAR-3 ovarian
[34] = test system: CAKI-1 renal
[35] = test system: SF-268 CNS
[36] = test system: BT-549 breast
[37] = test system: TK-10 renal
[38] = test system: HT29 colon
[39] = test system: RPMI-8226 leukemia
[40] = test system: SK-MEL-2 melanoma
[41] = test system: MALME-3M melanoma
[42] = test system: SW-620 colon
[43] = test system: A498 renal
[44] = test system: U251 CNS
[45] = test system: NCI-H23 lung
[46] = test system: SNB-75 CNS
[47] = test system: SNB-19 CNS
[48] = test system: COLO 205 colon
[49] = test system: SK-MEL-28 melanoma
[50] = test system: HS 578T breast
[51] = test system: MDA-MB-468 breast
[52] = test system: UO-31 renal
[53] = test system: PC-3 prostate
[54] = test system: HOP-92 NSCLC
[55] = test system: UACC-257 melanoma
[56] = test system: HCT-116 colon
[57] = test system: UACC-62 melanoma
[58] = test system: OVCAR-5 ovarian

SMILES: O=C1Nc2ccc(Cl)cc2/C1=C/c1cccc(OCc2ccccc2)c1
- GI50 [1]: 18.4 µM
- TGI [1]: 95.9 µM
- GI50 [2]: 15.3 µM
- TGI [2]: 37.9 µM
- GI50 [3]: 16.1 µM
- TGI [3]: > 100 µM
- GI50 [4]: 13.3 µM
- TGI [4]: 57.8 µM
- GI50 [5]: 20.1 µM
- TGI [5]: > 100 µM
- GI50 [6]: 15 µM
- TGI [6]: 37.3 µM
- GI50 [7]: 9.4 µM
- TGI [7]: 94.6 µM
- GI50 [8]: 24 µM
- TGI [8]: > 100 µM
- GI50 [9]: 18.5 µM
- TGI [9]: 48.6 µM
- GI50 [10]: 24 µM
- TGI [10]: 98.8 µM
- GI50 [11]: 14 µM
- TGI [11]: 37.9 µM
- GI50 [12]: 18.3 µM
- TGI [12]: > 100 µM
- GI50 [13]: 28.1 µM
- TGI [13]: > 100 µM
- GI50 [14]: 19.5 µM
- TGI [14]: > 100 µM
- GI50 [15]: 59 µM
- TGI [15]: > 100 µM
- GI50 [16]: 5.66 µM
- TGI [16]: 21.8 µM
- GI50 [17]: 37 µM
- TGI [17]: > 100 µM
- GI50 [18]: 11 µM
- TGI [18]: 37.8 µM
- GI50 [19]: 11.8 µM
- TGI [19]: 63.2 µM
- GI50 [20]: 14.1 µM
- TGI [20]: 32.6 µM
- GI50 [21]: 11.2 µM
- TGI [21]: 32.1 µM
- GI50 [22]: 14.1 µM
- TGI [22]: 84.6 µM
- GI50 [23]: 20.2 µM
- TGI [23]: 61.8 µM
- GI50 [24]: 10.2 µM
- TGI [24]: 40.4 µM
- GI50 [25]: 25.6 µM
- TGI [25]: 79.8 µM
- GI50 [26]: 3.9 µM
- TGI [26]: 75.1 µM
- GI50 [27]: 12.3 µM
- TGI [27]: 61.2 µM
- GI50 [28]: 20.5 µM
- TGI [28]: 88.8 µM
- GI50 [29]: 20.5 µM
- TGI [29]: > 100 µM
- GI50 [30]: 4.96 µM
- TGI [30]: 23.6 µM
- GI50 [31]: 41.2 µM
- TGI [31]: > 100 µM
- GI50 [32]: 17 µM
- TGI [32]: 45.3 µM
- GI50 [33]: 12.4 µM
- TGI [33]: 31.7 µM
- GI50 [34]: 10.8 µM
- TGI [34]: 32 µM
- GI50 [35]: 14.6 µM
- TGI [35]: 49.4 µM
- GI50 [36]: 14.3 µM
- TGI [36]: 66.1 µM
- GI50 [37]: 56.1 µM
- TGI [37]: > 100 µM
- GI50 [38]: 37.8 µM
- TGI [38]: > 100 µM
- GI50 [39]: 7.46 µM
- TGI [39]: 36.7 µM
- GI50 [40]: 31.2 µM
- TGI [40]: > 100 µM
- GI50 [41]: 21.1 µM
- TGI [41]: 64.7 µM
- GI50 [42]: 19.9 µM
- TGI [42]: 75.9 µM
- GI50 [43]: 38 µM
- TGI [43]: > 100 µM
- GI50 [44]: 14.8 µM
- TGI [44]: 55.4 µM
- GI50 [45]: 22 µM
- TGI [45]: > 100 µM
- GI50 [46]: 16.7 µM
- TGI [46]: 56 µM
- GI50 [47]: 17.9 µM
- TGI [47]: 58.8 µM
- GI50 [48]: 37.4 µM
- TGI [48]: > 100 µM
- GI50 [49]: 16.5 µM
- TGI [49]: 44.3 µM
- GI50 [50]: 16 µM
- TGI [50]: 72.9 µM
- GI50 [51]: 6.52 µM
- TGI [51]: 67.5 µM
- GI50 [52]: 7.91 µM
- TGI [52]: > 100 µM
- GI50 [53]: 14.9 µM
- TGI [53]: 82 µM
- GI50 [54]: 2.16 µM
- TGI [54]: 13.4 µM
- GI50 [55]: 53.8 µM
- TGI [55]: > 100 µM
- GI50 [56]: 10.7 µM
- TGI [56]: > 100 µM
- GI50 [57]: 8.87 µM
- TGI [57]: 35.4 µM
- GI50 [58]: 27.5 µM
- TGI [58]: > 100 µM

— PubChem BioAssay (NCI)
